Assay results published in patent US8450313B2, “2,3-diaryl- or heteroaryl-substituted 1,1,1-trifluoro-2-hydroxypropyl compounds” (Hoffmann-La Roche Inc., priority 2009, dated 2013).

Molecular target: T1, full length human recombinant glucocorticoid receptor (Homo sapiens, UniProt P04150)
T1 construct: It contains some partially purified full length human recombinant glucocorticoid receptor; purchased Panvera/Invitrogen PV4302
T1 sequence (P04150 1-777): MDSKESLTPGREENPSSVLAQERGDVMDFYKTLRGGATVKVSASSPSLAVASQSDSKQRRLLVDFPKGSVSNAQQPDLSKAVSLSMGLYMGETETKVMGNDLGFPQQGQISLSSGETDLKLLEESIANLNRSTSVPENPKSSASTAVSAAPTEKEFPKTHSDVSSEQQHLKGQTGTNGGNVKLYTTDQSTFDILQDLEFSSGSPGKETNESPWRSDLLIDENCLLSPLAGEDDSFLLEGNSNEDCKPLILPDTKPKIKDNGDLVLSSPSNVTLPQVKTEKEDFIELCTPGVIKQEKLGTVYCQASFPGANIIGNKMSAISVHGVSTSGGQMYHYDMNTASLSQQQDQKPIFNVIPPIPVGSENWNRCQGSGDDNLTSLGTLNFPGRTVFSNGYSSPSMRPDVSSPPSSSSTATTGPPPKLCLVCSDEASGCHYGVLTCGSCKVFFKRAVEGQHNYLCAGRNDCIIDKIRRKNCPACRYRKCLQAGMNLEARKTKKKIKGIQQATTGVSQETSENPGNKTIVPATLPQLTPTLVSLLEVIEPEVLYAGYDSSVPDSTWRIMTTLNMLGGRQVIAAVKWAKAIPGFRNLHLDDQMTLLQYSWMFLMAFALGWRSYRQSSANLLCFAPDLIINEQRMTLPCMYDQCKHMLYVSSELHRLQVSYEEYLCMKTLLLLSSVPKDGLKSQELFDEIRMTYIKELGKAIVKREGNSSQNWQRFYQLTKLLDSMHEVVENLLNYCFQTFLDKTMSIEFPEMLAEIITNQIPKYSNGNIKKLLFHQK
Assay: Glucocorticoid Receptor Binding Assay (Glucocorticoid Receptor Competitor Assay far red kit, fluorescence polarization)
Details: competition with fluorescent GR ligand Fluormone GS Far Red, 3 hours at 22° C., pH 7.4; Ki calculated from IC50 by Cheng-Prusoff
How it was run: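 Compounds in serial dilution (from intermediate 4.2% DMSO stock) displace Fluormone GS Far Red from full-length human recombinant GR with stabilizing peptide, pH 7.4, incubated 3 hours at 22° C dark. Polarized fluorescence (610–660 nm) gives IC50 via sigmoidal fit, converted to Ki by Cheng-Prusoff.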

| Ki [nM] | Structure (SMILES) |
| --- | --- |
| 109 | C[C@H](c1ccc(-c2ccc(C(=O)O)c(F)c2)cc1Cl)[C@@](O)(c1ccc2c(c1)oc(=O)n2C)C(F)(F)F (relative stereo) [Example 134, 3′-Chloro-3-fluoro-4′-[3,3,3-trifluoro-2-hydroxy-1-methyl-2-(3-methyl-2-oxo-2,3-dihydro-benzooxazol-6-yl)-propyl]-biphenyl-4-carboxylic acid] |
| 1 | C[C@H](c1ccc(-c2ccc(Cl)c(C(=O)O)c2)cc1Cl)[C@@](O)(c1ccc2c(c1)n(C)c(=O)n2C)C(F)(F)F (stereo in doubt) [Example 79, 4,3′-Dichloro-4′-[2-(1,3-dimethyl-2-oxo-2,3-dihydro-1H-benzoimidazol-5-yl)-3,3,3-trifluoro-2-hydroxy-1-methyl-propyl]-biphenyl-3-carboxylic acid] |
| 0.4 | C[C@H](c1ccc(Oc2ncc(C(=O)O)cc2Cl)cc1Cl)[C@@](O)(c1ccc2c(c1)n(C)c(=O)n2C)C(F)(F)F (stereo in doubt) [Example 107, 5-Chloro-6-{3-chloro-4-[2-(1,3-dimethyl-2-oxo-2,3-dihydro-1H-benzoimidazol-5-yl)-3,3,3-trifluoro-2-hydroxy-1-methyl-propyl]-phenoxy}-nicotinic acid] |
| 1.8 | COC(=O)c1ccc(Oc2ccc([C@H](C)[C@](O)(c3cc(C)c(C#N)c(C)c3)C(F)(F)F)c(Cl)c2)cc1F (relative stereo) [Example 141, 4-{3-Chloro-4-[2-(4-cyano-3,5-dimethyl-phenyl)-3,3,3-trifluoro-2-hydroxy-1-methyl-propyl]-phenoxy}-2-fluoro-benzoic acid methyl ester] |
| 2.7 | CC(c1ccc(Oc2ccc(C(=O)O)cc2F)cc1Cl)C(O)(c1ccc2c(c1)n(C)c(=O)n2C)C(F)(F)F (centres unmarked) [Example 86, 4-{3-Chloro-4-[2-(1,3-dimethyl-2-oxo-2,3-dihydro-1H-benzoimidazol-5-yl)-3,3,3-trifluoro-2-hydroxy-1-methyl-propyl]-phenoxy}-3-fluoro-benzoic acid] |
| 19.6 | C[C@@H](c1ccc(-c2ccccc2C(=O)O)cc1Cl)[C@](O)(c1ccc2c(c1)N(C)C(=O)CO2)C(F)(F)F (relative stereo) [Example 24, 3′-Chloro-4′-[3,3,3-trifluoro-2-hydroxy-1-methyl-2-(4-methyl-3-oxo-3,4-dihydro-2H-benzo[1,4]oxazin-6-yl)-propyl]-biphenyl-2-carboxylic acid] |
| 1 | C[C@H](c1ccc(Br)cc1Cl)[C@@](O)(c1ccc2oc(=O)n(C)c2c1)C(F)(F)F (relative stereo) [Example 116, 5-[2-(4-Bromo-2-chloro-phenyl)-1-hydroxy-1-trifluoromethyl-propyl]-3-methyl-3H-benzooxazol-2-one] |
| 1.1 | C[C@@H](c1ccc(Oc2ccc(CC(=O)O)cc2)cc1Cl)[C@](O)(c1ccc2c(c1)n(C)c(=O)n2C)C(F)(F)F (stereo in doubt) [Example 89, (4-{3-Chloro-4-[2-(1,3-dimethyl-2-oxo-2,3-dihydro-1H-benzoimidazol-5-yl)-3,3,3-trifluoro-2-hydroxy-1-methyl-propyl]-phenoxy}-phenyl)-acetic acid] |
| 1.8 | C[C@@H](c1ccc(-c2cc(C(=O)O)ccc2F)cc1Cl)[C@](O)(c1ccc2c(c1)N(C)C(=O)CO2)C(F)(F)F (relative stereo) [Example 38, 3′-Chloro-6-fluoro-4′-[3,3,3-trifluoro-2-hydroxy-1-methyl-2-(4-methyl-3-oxo-3,4-dihydro-2H-benzo[1,4]oxazin-6-yl)-propyl]-biphenyl-3-carboxylic acid] |
| 2.1 | C[C@H](c1ccc(Oc2cc(C(=O)O)c(C(F)(F)F)cn2)cc1Cl)[C@@](O)(c1ccc2c(c1)n(C)c(=O)n2C)C(F)(F)F (stereo in doubt) [Example 110, 2-{3-Chloro-4-[2-(1,3-dimethyl-2-oxo-2,3-dihydro-1H-benzoimidazol-5-yl)-3,3,3-trifluoro-2-hydroxy-1-methyl-propyl]-phenoxy}-5-trifluoromethyl-isonicotinic acid] |
| 60.2 | COC(=O)c1ccc(Oc2ccc([C@@H](C)[C@@](O)(c3ccc4c(c3)N(C)C(=O)CO4)C(F)(F)F)c(Cl)c2)cc1Cl (single isomer, unassigned) [Example 216] |
| 0.9 | C[C@H](c1ccc(Br)cc1C(F)(F)F)[C@@](O)(c1ccc2oc(=O)n(C)c2c1)C(F)(F)F (relative stereo) [Example 193, 5-[2-(4-Bromo-2-trifluoromethyl-phenyl)-1-hydroxy-1-trifluoromethyl-propyl]-3-methyl-3H-benzooxazol-2-one] |
| 2.2 | C[C@H](c1ccc(Oc2ccc(C(=O)O)c(Cl)n2)cc1Cl)[C@@](O)(c1ccc2c(c1)OCC(=O)N2C)C(F)(F)F (relative stereo) [Example 158, 2-Chloro-6-{3-chloro-4-[3,3,3-trifluoro-2-hydroxy-1-methyl-2-(4-methyl-3-oxo-3,4-dihydro-2H-benzo[1,4]oxazin-7-yl)-propyl]-phenoxy}-nicotinic acid] |
| 0.5 | C[C@H](c1ccc(-c2ccc(F)c(C(=O)O)c2)cc1Cl)[C@@](O)(c1ccc2oc(=O)n(C)c2c1)C(F)(F)F (relative stereo) [Example 122, 3′-Chloro-4-fluoro-4′-[3,3,3-trifluoro-2-hydroxy-1-methyl-2-(3-methyl-2-oxo-2,3-dihydro-benzooxazol-5-yl)-propyl]-biphenyl-3-carboxylic acid] |
| 3.9 | CCOC(=O)C(C)(C)Oc1ccc([C@@H](C)[C@@](O)(c2ccc3oc(=O)n(C)c3c2)C(F)(F)F)c(Cl)c1 (stereo in doubt) [Example 229, 2-{3-Chloro-4-[3,3,3-trifluoro-2-hydroxy-1-methyl-2-(3-methyl-2-oxo-2,3-dihydro-benzooxazol-5-yl)-propyl]-phenoxy}-2-methyl-propionic acid ethyl ester] |
| 6.5 | COc1cc(-c2ccc([C@H](C)[C@](O)(c3ccc4c(c3)N(C)C(=O)CO4)C(F)(F)F)c(Cl)c2)ccc1C(=O)O (relative stereo) [Example 36, 3′-Chloro-3-methoxy-4′-[3,3,3-trifluoro-2-hydroxy-1-methyl-2-(4-methyl-3-oxo-3,4-dihydro-2H-benzo[1,4]oxazin-6-yl)-propyl]-biphenyl-4-carboxylic acid] |
| 0.5 | C[C@H](c1ccc(-c2ccc(C(=O)O)cc2F)cc1Cl)[C@@](O)(c1ccc2oc(=O)n(C)c2c1)C(F)(F)F (relative stereo) [Example 126, 3′-Chloro-2-fluoro-4′-[3,3,3-trifluoro-2-hydroxy-1-methyl-2-(3-methyl-2-oxo-2,3-dihydro-benzooxazol-5-yl)-propyl]-biphenyl-4-carboxylic acid] |
| 6.6 | C[C@H](c1ccc(-c2ccc(C(=O)O)nc2)cc1Cl)[C@@](O)(c1ccc2oc(=O)n(C)c2c1)C(F)(F)F (relative stereo) [Example 189, 5-{3-Chloro-4-[3,3,3-trifluoro-2-hydroxy-1-methyl-2-(3-methyl-2-oxo-2,3-dihydro-benzooxazol-5-yl)-propyl]-phenyl}-pyridine-2-carboxylic acid] |
| 8.9 | C[C@H](c1ccc(Oc2ncc(C(=O)O)cc2Cl)cc1Cl)[C@@](O)(c1ccc(C#N)cc1)C(F)(F)F (relative stereo) [Example 155, 5-Chloro-6-{3-chloro-4-[2-(4-cyano-phenyl)-3,3,3-trifluoro-2-hydroxy-1-methyl-propyl]-phenoxy}-nicotinic acid] |
| 23.2 | C[C@H](c1ccc(-c2ccc(C(=O)O)c(F)c2)cc1Cl)[C@@](O)(c1cccc(C#N)c1)C(F)(F)F (relative stereo) [Example 153, 3′-Chloro-4′-[2-(3-cyano-phenyl)-3,3,3-trifluoro-2-hydroxy-1-methyl-propyl]-3-fluoro-biphenyl-4-carboxylic acid] |
| 0.8 | CC(c1ccc(O)cc1Cl)C(O)(c1ccc2c(c1)n(C)c(=O)n2C)C(F)(F)F (centres unmarked) [Example 85, 5-[2-(2-Chloro-4-hydroxy-phenyl)-1-hydroxy-1-trifluoromethyl-propyl]-1,3-dimethyl-1,3-dihydro-benzoimidazol-2-one] |
| 1.1 | COC(=O)c1ccc(-c2ccc([C@@H](C)[C@@](O)(c3ccc4oc(=O)n(C)c4c3)C(F)(F)F)c(Cl)c2)cc1Cl (relative stereo) [Example 123, 3,3′-Dichloro-4′-[3,3,3-trifluoro-2-hydroxy-1-methyl-2-(3-methyl-2-oxo-2,3-dihydro-benzooxazol-5-yl)-propyl]-biphenyl-4-carboxylic acid methyl ester] |
| 2.2 | COC(=O)c1ccc(-c2ccc([C@@H](C)[C@@](O)(c3ccc4oc(=O)n(C)c4c3)C(F)(F)F)c(Cl)c2)cc1F (relative stereo) [Example 117, 3′-Chloro-3-fluoro-4′-[3,3,3-trifluoro-2-hydroxy-1-methyl-2-(3-methyl-2-oxo-2,3-dihydro-benzooxazol-5-yl)-propyl]-biphenyl-4-carboxylic acid methyl ester] |
